What was measured:
Format in all cases: in vivo
Scirpus juncoides = experiment: Test Example 2: herbicidal activity, application during weed generation in submerged conditions (symbol B); settings: Table 23; application herbicide amount 320 g/ha; grade 0-5 by criteria of Test Example 1
In short: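 Scoring of herbicidal effect took place 3 weeks after treatment, using the criteria of the earlier test. Treatment was water-surface application of diluted emulsifiable compound at a set dose. Plants were at one- to two-leaf stage in submerged alluvial soil (4 cm depth), greenhouse 25-30° C.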

Stellaria media = experiment: Test Example 4: herbicidal effect by soil treatment (symbol P); settings: application herbicide amount 320 g/ha
In short: (§1)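 Seeds were sown in sterilized diluvial soil, covered with about 1.5 cm of soil, and the soil surface was sprayed with a water-diluted emulsion of the compound at a predetermined rate. Plants grew in a greenhouse at 25° C. to 30° C.; effects were scored visually 3 weeks after application.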

rapeseed = experiment: Test Example 5: effect on crop by foliage application, plastic box (symbol g); settings: 320 g/ha, 3 weeks after application
In short: (§2)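 Greenhouse test at 25° C. to 30° C. Seeds of crops and weeds were spot-sown in boxes of sterilized diluvial soil under roughly 1.5 cm soil cover, then grown for foliage treatment.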

beet = experiment: Test Example 4: effect on crop by soil treatment (symbol f); settings: application herbicide amount 320 g/ha
In short: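 Plants are raised in a greenhouse (25° C. to 30° C.) from spot-sown seed, which sits under about 1.5 cm of sterilized diluvial soil in a box shared with weed species.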

Abutilon theophrasti = experiment: Test Example 5: herbicidal effect by foliage application, plastic box (symbol M); settings: 320 g/ha, 3 weeks after application
In short: (§3)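 Herbicide, formulated as an emulsion and diluted in water, is sprayed onto the aerial parts of 14-day seedlings. These were grown at 25° C. to 30° C. in sterilized diluvial soil; effects are graded after 3 weeks.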

Monochoria vaginalis = experiment: Test Example 1: herbicidal activity, application before weed generation in submerged conditions (symbol C); settings: application herbicide amount 320 g/ha
In short: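 Greenhouse growth at 25–30 °C lasted 3 weeks after treatment, when each weed was graded 0–5 by herbicidal ratio. Treatment was a diluted emulsion applied to the water surface of 4 cm-submerged alluvial soil on the sowing day.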

Digitaria ciliaris = experiment: Test Example 4: herbicidal effect by soil treatment (symbol F); settings: application herbicide amount 320 g/ha
In short: as §1

Alopecurus myosuroides = experiment: Test Example 5: herbicidal effect by foliage application, plastic box (symbol J); settings: 320 g/ha, 3 weeks after application
In short: as §3

[1] = test system: Echinochloa crus-galli var. crus-galli; experiment: Test Example 4: herbicidal effect by soil treatment (symbol H); settings: application herbicide amount 320 g/ha
In short: as §1

Apera spica-venti = experiment: Test Example 5: herbicidal effect by foliage application, plastic box (symbol L); settings: 320 g/ha, 3 weeks after application
In short: as §3

[2] = test system: Echinochloa crus-galli var. crus-galli; experiment: Test Example 5: herbicidal effect by foliage application, plastic box (symbol H); settings: 320 g/ha, 3 weeks after application
In short: as §3

rice plant = experiment: Test Example 5: effect on crop by foliage application, plastic box (symbol b); settings: 320 g/ha, 3 weeks after application
In short: as §2

SMILES	Herbicidal effect grade, B: Scirpus juncoides (Scirpus juncoides)	P: Stellaria media, herbicidal effect grade (Stellaria media)	g: rapeseed, effect on crop grade (rapeseed)	f: beet, effect on crop grade (beet)	M: Abutilon theophrasti, herbicidal effect grade (Abutilon theophrasti)	Herbicidal effect grade, C: Monochoria vaginalis (Monochoria vaginalis)	F: Digitaria ciliaris, herbicidal effect grade (Digitaria ciliaris)	J: Alopecurus myosuroides, herbicidal effect grade (Alopecurus myosuroides)	H: Echinochloa crus-galli var. crus-galli, herbicidal effect grade [1]	L: Apera spica-venti, herbicidal effect grade (Apera spica-venti)	H: Echinochloa crus-galli var. crus-galli, herbicidal effect grade [2]	b: directly sowed rice plant, effect on crop grade (rice plant)
CCC(C)C(=O)CC1CC(O)=C(c2c(C)cc(C)cc2C)C1=O (stereo not drawn) [2-024]	0 (Herbicidal ratio of 5% or lower (almost no effect))	0 (Herbicidal ratio of 5% or lower (almost no effect))	3 (Herbicidal ratio of 40% or higher and lower than 70%)	0 (Herbicidal ratio of 5% or lower (almost no effect))	0 (Herbicidal ratio of 5% or lower (almost no effect))	0 (Herbicidal ratio of 5% or lower (almost no effect))	5 (Herbicidal ratio of 90% or more (almost completely withered))	4 (Herbicidal ratio of 70% or higher and lower than 90%)	4 (Herbicidal ratio of 70% or higher and lower than 90%)	2 (Herbicidal ratio of 20% or higher and lower than 40%)	5 (Herbicidal ratio of 90% or more (almost completely withered))	5 (Herbicidal ratio of 90% or more (almost completely withered))
Cc1cc(C)c(C2=C(O)CC(CC(=O)C3CCCC3)C2=O)c(C)c1 (stereo not drawn) [2-028]	0 (Herbicidal ratio of 5% or lower (almost no effect))	0 (Herbicidal ratio of 5% or lower (almost no effect))	3 (Herbicidal ratio of 40% or higher and lower than 70%)	0 (Herbicidal ratio of 5% or lower (almost no effect))	0 (Herbicidal ratio of 5% or lower (almost no effect))	0 (Herbicidal ratio of 5% or lower (almost no effect))	4 (Herbicidal ratio of 70% or higher and lower than 90%)	4 (Herbicidal ratio of 70% or higher and lower than 90%)	1 (Herbicidal ratio of 5% or higher and lower than 20%)	1 (Herbicidal ratio of 5% or higher and lower than 20%)	5 (Herbicidal ratio of 90% or more (almost completely withered))	5 (Herbicidal ratio of 90% or more (almost completely withered))
Cc1cc(C)c(C2=C(O)CC(CC(=O)C3CCCCC3)C2=O)c(C)c1 (stereo not drawn) [2-030]	0 (Herbicidal ratio of 5% or lower (almost no effect))	0 (Herbicidal ratio of 5% or lower (almost no effect))	3 (Herbicidal ratio of 40% or higher and lower than 70%)	0 (Herbicidal ratio of 5% or lower (almost no effect))	0 (Herbicidal ratio of 5% or lower (almost no effect))	0 (Herbicidal ratio of 5% or lower (almost no effect))	4 (Herbicidal ratio of 70% or higher and lower than 90%)	3 (Herbicidal ratio of 40% or higher and lower than 70%)	1 (Herbicidal ratio of 5% or higher and lower than 20%)	2 (Herbicidal ratio of 20% or higher and lower than 40%)	4 (Herbicidal ratio of 70% or higher and lower than 90%)	5 (Herbicidal ratio of 90% or more (almost completely withered))

— patent publication US11000033B2, “Ketone or oxime compound, and herbicide” (NISSAN CHEMICAL CORPORATION, priority 2014, dated 2021)
